Target: T1, 15-PGDH (Homo sapiens, UniProt P15428)
T1 construct: made in house
T1 sequence (P15428 1-266): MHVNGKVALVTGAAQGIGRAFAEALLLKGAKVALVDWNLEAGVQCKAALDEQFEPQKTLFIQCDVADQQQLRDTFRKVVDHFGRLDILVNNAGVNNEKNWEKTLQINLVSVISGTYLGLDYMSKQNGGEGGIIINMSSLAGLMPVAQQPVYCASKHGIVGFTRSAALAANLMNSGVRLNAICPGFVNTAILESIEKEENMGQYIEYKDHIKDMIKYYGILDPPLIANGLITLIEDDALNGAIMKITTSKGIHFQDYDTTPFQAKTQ
Assay: Test on 15-PGDH (spectrophotometric, NAD/PGE2, 340 nm)
Format: biochemical
Conditions: for IC50: pH 7.4 Tris buffer, 37° C., 50 μM prostaglandin E2, 1.5 mM β-NAD, read-out: IC50 (concentration reducing the enzymatic activity of 15-PGDH by 50%, IC50dh)
Protocol: The enzyme 15-PGDH is obtained as described in FR 02/05067 filed in the name of L'Oreal, as a suspension in a medium adjusted to a concentration of 0.3 mg/mL and then blocked at −80° C. For the purposes of the test, this suspension is thawed and stored in ice.
In parallel, a 100 mM, pH 7.4 Tris buffer containing 0.1 mM of dithiothreitol (D5545, Sigma-Aldrich, L'isle D'Abeau Chesne, BP 701, 38297, Saint Quentin Fallavier), 1.5 mM of β-NAD (N6522, Sigma-Aldrich, L'isle D'Abeau Chesne, BP 701, 38297, Saint Quentin Fallavier), and 50 μM of prostaglandin E2 (P4172, Sigma-Aldrich, L'isle D'Abeau Chesne, BP 701, 38297, Saint Quentin Fallavier) is prepared.
0.965 ml of this buffer (brought to 37° C. beforehand) is introduced into the cuvette of a spectrophotometer (Perkin-Elmer, Lambda 2) thermostatically maintained at 37° C., the measuring wavelength of which is set at 340 nm. 0.035 mL of enzymatic suspension at 37° C. is introduced into the cuvette concomitantly with the recording (corresponding to an increase in the optical density at 340 nm). The maximum reaction rate is recorded.

Compound `CSCCC(=O)NCc1ccc(C)o1` [Example 1, N-[(5-methyl-2-furyl)methyl]-3-(methylsulfanyl)propanamide] has an IC50 of 0.8 µM.

Compound `CSCCC(=O)NC1CCC1` [Example 8, N-cyclobutyl-3-(methylsulfanyl)propanamide] has an IC50 of 47 µM.

In the case of `CSCCC(=O)NC(C)c1ccccc1` (centres unmarked) [Example 7, 3-(methylsulfanyl)-N-(1-phenylethyl)propanamide], the IC50 is reported as 14.7 µM.

`CSCCC(=O)Nc1ccccc1C(F)(F)F` [Example 5, 3-(methylsulfanyl)-N-[2-(trifluoromethyl)phenyl]propanamide] gave an inhibition at 100 µM (at 100 μM) of 21%.

For `CSCCC(=O)NCc1ccco1` [Example 2, N-(2-furylmethyl)-3-(methylsulfanyl)propanamide], the IC50 was 9.8 µM.

Work on `COc1ccc(CNC(=O)CCSC)cc1` [Example 3, N-(4-methoxybenzyl)-3-(methylsulfanyl)propanamide] yielded an IC50 of 6 µM.

With “N-benzyl-3-(methylsulfanyl)propanamide [Example 6]” the IC50 was 1.6 µM.

`CCCCCCNC(=O)CCSC` [Example 4, N-hexyl-3-(methylsulfanyl)propanamide] gave an IC50 of 12 µM.

— patent US20080025940A1, “Administration of 3-sulfanylpropanamide compounds for stimulating hair and eyelash growth and/or for stopping the loss and/or limiting the depigmentation thereof” (L'OREAL, priority 2005, published 2008)
